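1) Cells in 96-well plates. 2) Compound, 48 h, 5 concentrations. 3) Linear interpolation between surrounding doses. 4) Unreached endpoint = highest concentration. TGI denotes the concentration required for complete inhibition of growth.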
Legend:
Experiment in all cases: NCI tumour cell line growth inhibition, 48 h
TK-10 renal = system: TK-10 renal
SF-295 CNS = system: SF-295 CNS
SK-OV-3 ovarian = system: SK-OV-3 ovarian
ACHN renal = system: ACHN renal
RXF 393 renal = system: RXF 393 renal
RXF-631 renal = system: RXF-631 renal
COLO 205 colon = system: COLO 205 colon
NCI-H23 lung = system: NCI-H23 lung
KM12 colon = system: KM12 colon
SF-539 CNS = system: SF-539 CNS
M19-MEL melanoma = system: M19-MEL melanoma
LXFL 529 NSCLC = system: LXFL 529 NSCLC
KM20L2 colon = system: KM20L2 colon
DMS 114 small cell lung = system: DMS 114 small cell lung
CCRF-CEM leukemia = system: CCRF-CEM leukemia
DLD-1 colon = system: DLD-1 colon
U251 CNS = system: U251 CNS
XF 498 CNS = system: XF 498 CNS
SN12C renal = system: SN12C renal
UO-31 renal = system: UO-31 renal
786-0 renal = system: 786-0 renal
HT29 colon = system: HT29 colon
SR leukemia = system: SR leukemia
OVCAR-4 ovarian = system: OVCAR-4 ovarian
HCC-2998 colon = system: HCC-2998 colon
IGROV1 ovarian = system: IGROV1 ovarian
SF-268 CNS = system: SF-268 CNS
HCT-15 colon = system: HCT-15 colon
NCI-H522 lung = system: NCI-H522 lung
HOP-92 NSCLC = system: HOP-92 NSCLC
MALME-3M melanoma = system: MALME-3M melanoma
OVCAR-8 ovarian = system: OVCAR-8 ovarian
A549 NSCLC = system: A549 NSCLC
OVCAR-3 ovarian = system: OVCAR-3 ovarian
SK-MEL-5 melanoma = system: SK-MEL-5 melanoma
SK-MEL-2 melanoma = system: SK-MEL-2 melanoma
K-562 leukemia = system: K-562 leukemia
SNB-78 CNS = system: SNB-78 CNS
MOLT-4 leukemia = system: MOLT-4 leukemia
EKVX NSCLC = system: EKVX NSCLC
SK-MEL-28 melanoma = system: SK-MEL-28 melanoma
UACC-62 melanoma = system: UACC-62 melanoma
CAKI-1 renal = system: CAKI-1 renal
SW-620 colon = system: SW-620 colon
M14 melanoma = system: M14 melanoma
SNB-19 CNS = system: SNB-19 CNS
OVCAR-5 ovarian = system: OVCAR-5 ovarian
A498 renal = system: A498 renal
LOX IMVI melanoma = system: LOX IMVI melanoma
UACC-257 melanoma = system: UACC-257 melanoma
NCI-H226 lung = system: NCI-H226 lung
HCT-116 colon = system: HCT-116 colon
RPMI-8226 leukemia = system: RPMI-8226 leukemia
SNB-75 CNS = system: SNB-75 CNS
HL-60(TB) leukemia = system: HL-60(TB) leukemia
HOP-62 NSCLC = system: HOP-62 NSCLC
HOP-18 NSCLC = system: HOP-18 NSCLC
NCI-H460 lung = system: NCI-H460 lung
DMS 273 small cell lung = system: DMS 273 small cell lung

O=C1OC(c2ccccc2)=N/C1=C/C=C/c1ccco1
TGI (TK-10 renal): > 100 µM
TGI (SF-295 CNS): > 100 µM
TGI (SK-OV-3 ovarian): > 100 µM
TGI (ACHN renal): > 100 µM
TGI (RXF 393 renal): > 100 µM
TGI (RXF-631 renal): > 100 µM
TGI (COLO 205 colon): > 100 µM
TGI (NCI-H23 lung): > 100 µM
TGI (KM12 colon): > 100 µM
TGI (SF-539 CNS): > 100 µM
TGI (M19-MEL melanoma): > 100 µM
TGI (LXFL 529 NSCLC): > 100 µM
TGI (KM20L2 colon): > 100 µM
TGI (DMS 114 small cell lung): > 100 µM
TGI (CCRF-CEM leukemia): > 100 µM
TGI (DLD-1 colon): > 100 µM
TGI (U251 CNS): > 100 µM
TGI (XF 498 CNS): > 100 µM
TGI (SN12C renal): > 100 µM
TGI (UO-31 renal): > 100 µM
TGI (786-0 renal): > 100 µM
TGI (HT29 colon): > 100 µM
TGI (SR leukemia): > 100 µM
TGI (OVCAR-4 ovarian): > 100 µM
TGI (HCC-2998 colon): > 100 µM
TGI (IGROV1 ovarian): > 100 µM
TGI (SF-268 CNS): > 100 µM
TGI (HCT-15 colon): > 100 µM
TGI (NCI-H522 lung): > 100 µM
TGI (HOP-92 NSCLC): > 100 µM
TGI (MALME-3M melanoma): > 100 µM
TGI (OVCAR-8 ovarian): > 100 µM
TGI (A549 NSCLC): > 100 µM
TGI (OVCAR-3 ovarian): > 100 µM
TGI (SK-MEL-5 melanoma): > 100 µM
TGI (SK-MEL-2 melanoma): > 100 µM
TGI (K-562 leukemia): > 100 µM
TGI (SNB-78 CNS): > 100 µM
TGI (MOLT-4 leukemia): > 100 µM
TGI (EKVX NSCLC): > 100 µM
TGI (SK-MEL-28 melanoma): > 100 µM
TGI (UACC-62 melanoma): > 100 µM
TGI (CAKI-1 renal): > 100 µM
TGI (SW-620 colon): > 100 µM
TGI (M14 melanoma): > 100 µM
TGI (SNB-19 CNS): > 100 µM
TGI (OVCAR-5 ovarian): > 100 µM

CC1=Nc2ccccc2C1C(Cc1ccccc1N)c1c(C)[nH]c2ccccc12 (stereo not given)
TGI (TK-10 renal): 30.8 µM
TGI (SF-295 CNS): 25.8 µM
TGI (A498 renal): 29.8 µM
TGI (SK-OV-3 ovarian): 53.3 µM
TGI (ACHN renal): 30.1 µM
TGI (LOX IMVI melanoma): 28.2 µM
TGI (UACC-257 melanoma): 32.4 µM
TGI (RXF 393 renal): 35.1 µM
TGI (RXF-631 renal): 44.4 µM
TGI (COLO 205 colon): 30.2 µM
TGI (NCI-H23 lung): 33.6 µM
TGI (NCI-H226 lung): 32.9 µM
TGI (KM12 colon): 31.7 µM
TGI (SF-539 CNS): 31.5 µM
TGI (M19-MEL melanoma): 33.1 µM
TGI (HCT-116 colon): 30.6 µM
TGI (LXFL 529 NSCLC): 32.2 µM
TGI (KM20L2 colon): 28.2 µM
TGI (DMS 114 small cell lung): 33.5 µM
TGI (CCRF-CEM leukemia): 47.2 µM
TGI (RPMI-8226 leukemia): 52.4 µM
TGI (DLD-1 colon): 35.4 µM
TGI (U251 CNS): 32.4 µM
TGI (SNB-75 CNS): 34.8 µM
TGI (XF 498 CNS): 32.5 µM
TGI (SN12C renal): 33.6 µM
TGI (UO-31 renal): 31.8 µM
TGI (786-0 renal): 28.6 µM
TGI (HT29 colon): 33.1 µM
TGI (SR leukemia): 50.3 µM
TGI (HCC-2998 colon): 30.2 µM
TGI (IGROV1 ovarian): 36 µM
TGI (SF-268 CNS): 21.5 µM
TGI (HL-60(TB) leukemia): 35.7 µM
TGI (HCT-15 colon): 51 µM
TGI (NCI-H522 lung): 31.6 µM
TGI (HOP-92 NSCLC): 26.1 µM
TGI (MALME-3M melanoma): 31 µM
TGI (OVCAR-8 ovarian): 32.6 µM
TGI (A549 NSCLC): 32.8 µM
TGI (OVCAR-3 ovarian): 31.4 µM
TGI (SK-MEL-5 melanoma): 27.8 µM
TGI (SK-MEL-2 melanoma): 23 µM
TGI (K-562 leukemia): 43.2 µM
TGI (MOLT-4 leukemia): 53.4 µM
TGI (EKVX NSCLC): 37.7 µM
TGI (HOP-62 NSCLC): 27.9 µM
TGI (SK-MEL-28 melanoma): 32.8 µM
TGI (UACC-62 melanoma): 26.3 µM
TGI (SW-620 colon): 34.7 µM
TGI (M14 melanoma): 28.3 µM
TGI (SNB-19 CNS): 41.6 µM
TGI (HOP-18 NSCLC): 24.8 µM
TGI (OVCAR-5 ovarian): 31.6 µM
TGI (NCI-H460 lung): 35.2 µM

O=C(/C=C/c1ccc(O)cc1)OC[C@@H](O)COC1OC(CO)C(O)C(O)C1O (stereo not given in full)
TGI (TK-10 renal): > 100 µM
TGI (SF-295 CNS): > 100 µM
TGI (A498 renal): > 100 µM
TGI (SK-OV-3 ovarian): > 100 µM
TGI (ACHN renal): > 100 µM
TGI (UACC-257 melanoma): > 100 µM
TGI (RXF 393 renal): > 100 µM
TGI (RXF-631 renal): > 100 µM
TGI (NCI-H23 lung): > 100 µM
TGI (NCI-H226 lung): > 100 µM
TGI (KM12 colon): > 100 µM
TGI (M19-MEL melanoma): > 100 µM
TGI (HCT-116 colon): > 100 µM
TGI (DMS 114 small cell lung): > 100 µM
TGI (CCRF-CEM leukemia): > 100 µM
TGI (U251 CNS): > 100 µM
TGI (UO-31 renal): > 100 µM
TGI (HT29 colon): > 100 µM
TGI (SR leukemia): > 100 µM
TGI (IGROV1 ovarian): > 100 µM
TGI (HL-60(TB) leukemia): > 100 µM
TGI (NCI-H522 lung): > 100 µM
TGI (HOP-92 NSCLC): > 100 µM
TGI (OVCAR-8 ovarian): > 100 µM
TGI (A549 NSCLC): > 100 µM
TGI (K-562 leukemia): > 100 µM
TGI (SNB-78 CNS): > 100 µM
TGI (MOLT-4 leukemia): > 100 µM
TGI (EKVX NSCLC): > 100 µM
TGI (HOP-62 NSCLC): > 100 µM
TGI (SK-MEL-28 melanoma): > 100 µM
TGI (M14 melanoma): > 100 µM
TGI (SNB-19 CNS): > 100 µM
TGI (OVCAR-5 ovarian): > 100 µM
TGI (NCI-H460 lung): > 100 µM

Cc1ccc(NC(=O)c2c(C)nc(=O)n3c2N(/N=C/c2ccc(Cl)cc2)CC3)cc1
TGI (A498 renal): 33.1 µM
TGI (SK-OV-3 ovarian): 39.7 µM
TGI (ACHN renal): 33.8 µM
TGI (RXF-631 renal): 30.6 µM
TGI (COLO 205 colon): 54.8 µM
TGI (NCI-H23 lung): 29.2 µM
TGI (NCI-H226 lung): 33.3 µM
TGI (SF-539 CNS): 25 µM
TGI (M19-MEL melanoma): 37 µM
TGI (HCT-116 colon): 26.4 µM
TGI (LXFL 529 NSCLC): 31.6 µM
TGI (DMS 114 small cell lung): 55.1 µM
TGI (CCRF-CEM leukemia): > 100 µM
TGI (DLD-1 colon): 30.7 µM
TGI (SNB-75 CNS): 34.1 µM
TGI (XF 498 CNS): 34.1 µM
TGI (SN12C renal): 30.6 µM
TGI (UO-31 renal): 24 µM
TGI (786-0 renal): 33.8 µM
TGI (SR leukemia): > 100 µM
TGI (DMS 273 small cell lung): 43.9 µM
TGI (OVCAR-4 ovarian): 32 µM
TGI (HCC-2998 colon): 32.3 µM
TGI (IGROV1 ovarian): 36.2 µM
TGI (SF-268 CNS): 29.2 µM
TGI (HL-60(TB) leukemia): 48.7 µM
TGI (NCI-H522 lung): 24 µM
TGI (HOP-92 NSCLC): 36.6 µM
TGI (MALME-3M melanoma): 40.1 µM
TGI (SK-MEL-2 melanoma): 34.7 µM
TGI (K-562 leukemia): > 100 µM
TGI (SNB-78 CNS): 40.5 µM
TGI (MOLT-4 leukemia): 82 µM
TGI (HOP-62 NSCLC): 33.1 µM
TGI (SK-MEL-28 melanoma): 31.2 µM
TGI (UACC-62 melanoma): 28.2 µM
TGI (CAKI-1 renal): 32.1 µM
TGI (M14 melanoma): 31.5 µM

Reference: PubChem BioAssay (NCI)
